Experimental data as given in paper PMC8799717, “Pharmacological targeting PIKfyve and tubulin as an effective treatment strategy for double-hit lymphoma” (Cell Death Discovery, 2022).

Columns and labels:
Assay in all cases: biochemical
Parameters in all cases: KINOMEscan active-site-directed competition binding panel, 468 kinases, percent of DMSO control at 1 uM
Settings in all cases: KINOMEscan binding, percent of DMSO control; read-out: Ctrl%
FAK = target: T1, FAK (Homo sapiens, UniProt Q05397)
T1 construct: gene PTK2

CDC2L5 = target: T2, CDC2L5 (Homo sapiens, UniProt Q14004)
T2 construct: gene CDK13

HCK = HCK (Homo sapiens, UniProt P08631)
NDR1 = target: T3, NDR1 (Homo sapiens, UniProt Q15208)
T3 construct: gene STK38

MEK5 = target: T4, MEK5 (Homo sapiens, UniProt Q13163)
T4 construct: gene MAP2K5

NEK2 = NEK2 (Homo sapiens, UniProt P51955)
MYO3B = MYO3B (Homo sapiens, UniProt Q8WXR4)
IKK-epsilon = target: T5, IKK-epsilon (Homo sapiens, UniProt Q14164)
T5 construct: gene IKBKE

NEK4 = NEK4 (Homo sapiens, UniProt P51957)
MERTK = MERTK (Homo sapiens, UniProt Q12866)
ROS1 = ROS1 (Homo sapiens, UniProt P08922)
SRPK1 = SRPK1 (Homo sapiens, UniProt Q96SB4)
MST1 = target: T6, MST1 (Homo sapiens, UniProt Q13043)
T6 construct: gene STK4

[1] = target: T7, TYK2(JH1domain-catalytic) (Homo sapiens, UniProt P29597)
T7 construct: JH1domain-catalytic

EGFR = EGFR (Homo sapiens, UniProt P00533)
YANK1 = target: T8, YANK1 (Homo sapiens, UniProt Q8WU08)
T8 construct: gene STK32A

ASK2 = target: T9, ASK2 (Homo sapiens, UniProt O95382)
T9 construct: gene MAP3K6

BMPR1B = BMPR1B (Homo sapiens, UniProt O00238)
ROCK2 = ROCK2 (Homo sapiens, UniProt O75116)
IGF1R = IGF1R (Homo sapiens, UniProt P08069)
FLT3(ITD) = FLT3(ITD) (Homo sapiens, UniProt P36888, ITD)
MAP3K3 = MAP3K3 (Homo sapiens, UniProt Q99759)
MLK2 = target: T10, MLK2 (Homo sapiens, UniProt Q02779)
T10 construct: gene MAP3K10

JNK3 = target: T11, JNK3 (Homo sapiens, UniProt P53779)
T11 construct: gene MAPK10
T11 sequence (P53779 whole entry): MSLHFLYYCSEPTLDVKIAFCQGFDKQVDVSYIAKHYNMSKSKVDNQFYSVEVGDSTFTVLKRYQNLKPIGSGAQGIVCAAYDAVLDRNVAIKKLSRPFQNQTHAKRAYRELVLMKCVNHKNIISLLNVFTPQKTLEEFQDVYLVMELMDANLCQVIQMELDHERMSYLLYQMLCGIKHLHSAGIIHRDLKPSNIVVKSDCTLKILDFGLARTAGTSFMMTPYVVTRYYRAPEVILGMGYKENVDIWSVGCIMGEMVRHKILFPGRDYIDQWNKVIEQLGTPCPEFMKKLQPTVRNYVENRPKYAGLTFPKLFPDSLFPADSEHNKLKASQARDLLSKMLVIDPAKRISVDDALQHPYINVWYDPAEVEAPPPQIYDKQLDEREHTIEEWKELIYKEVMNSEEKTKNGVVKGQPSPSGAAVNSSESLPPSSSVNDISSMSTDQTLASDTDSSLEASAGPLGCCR

Sequence of IGF1R (P08069 whole entry): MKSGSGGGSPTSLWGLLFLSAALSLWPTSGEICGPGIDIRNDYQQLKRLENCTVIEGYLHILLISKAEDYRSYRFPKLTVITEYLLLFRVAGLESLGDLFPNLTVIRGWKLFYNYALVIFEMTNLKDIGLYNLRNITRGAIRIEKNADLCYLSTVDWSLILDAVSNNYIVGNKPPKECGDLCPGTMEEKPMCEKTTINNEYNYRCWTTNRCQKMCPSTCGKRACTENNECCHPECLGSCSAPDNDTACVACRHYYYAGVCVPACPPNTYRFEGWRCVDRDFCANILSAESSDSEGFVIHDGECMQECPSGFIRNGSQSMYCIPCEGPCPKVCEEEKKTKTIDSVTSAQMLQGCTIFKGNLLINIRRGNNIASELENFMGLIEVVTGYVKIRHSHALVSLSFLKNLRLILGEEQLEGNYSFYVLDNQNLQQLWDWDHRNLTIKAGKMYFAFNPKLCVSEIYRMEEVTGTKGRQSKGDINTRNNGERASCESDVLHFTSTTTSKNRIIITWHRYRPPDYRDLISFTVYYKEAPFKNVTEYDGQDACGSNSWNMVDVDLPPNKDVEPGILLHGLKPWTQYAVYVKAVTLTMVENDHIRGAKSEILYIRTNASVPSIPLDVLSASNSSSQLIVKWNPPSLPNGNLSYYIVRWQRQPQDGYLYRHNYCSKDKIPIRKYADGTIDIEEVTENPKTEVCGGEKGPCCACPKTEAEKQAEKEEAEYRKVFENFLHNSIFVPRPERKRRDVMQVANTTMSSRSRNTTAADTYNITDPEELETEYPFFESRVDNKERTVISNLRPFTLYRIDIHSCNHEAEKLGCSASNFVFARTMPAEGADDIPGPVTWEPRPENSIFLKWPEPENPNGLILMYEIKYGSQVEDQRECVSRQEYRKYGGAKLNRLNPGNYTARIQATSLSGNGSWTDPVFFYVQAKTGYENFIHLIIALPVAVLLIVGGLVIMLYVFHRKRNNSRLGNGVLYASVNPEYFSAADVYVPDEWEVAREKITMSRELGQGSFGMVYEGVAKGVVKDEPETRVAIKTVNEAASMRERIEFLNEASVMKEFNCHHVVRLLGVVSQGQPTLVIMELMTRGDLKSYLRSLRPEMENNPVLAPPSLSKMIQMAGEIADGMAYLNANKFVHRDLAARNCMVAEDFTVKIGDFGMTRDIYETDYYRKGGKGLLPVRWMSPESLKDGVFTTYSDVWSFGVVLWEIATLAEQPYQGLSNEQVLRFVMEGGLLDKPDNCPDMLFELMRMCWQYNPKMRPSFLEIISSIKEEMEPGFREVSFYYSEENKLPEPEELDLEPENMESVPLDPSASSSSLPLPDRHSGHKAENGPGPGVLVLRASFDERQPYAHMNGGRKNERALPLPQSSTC
Sequence of MYO3B (Q8WXR4 whole entry): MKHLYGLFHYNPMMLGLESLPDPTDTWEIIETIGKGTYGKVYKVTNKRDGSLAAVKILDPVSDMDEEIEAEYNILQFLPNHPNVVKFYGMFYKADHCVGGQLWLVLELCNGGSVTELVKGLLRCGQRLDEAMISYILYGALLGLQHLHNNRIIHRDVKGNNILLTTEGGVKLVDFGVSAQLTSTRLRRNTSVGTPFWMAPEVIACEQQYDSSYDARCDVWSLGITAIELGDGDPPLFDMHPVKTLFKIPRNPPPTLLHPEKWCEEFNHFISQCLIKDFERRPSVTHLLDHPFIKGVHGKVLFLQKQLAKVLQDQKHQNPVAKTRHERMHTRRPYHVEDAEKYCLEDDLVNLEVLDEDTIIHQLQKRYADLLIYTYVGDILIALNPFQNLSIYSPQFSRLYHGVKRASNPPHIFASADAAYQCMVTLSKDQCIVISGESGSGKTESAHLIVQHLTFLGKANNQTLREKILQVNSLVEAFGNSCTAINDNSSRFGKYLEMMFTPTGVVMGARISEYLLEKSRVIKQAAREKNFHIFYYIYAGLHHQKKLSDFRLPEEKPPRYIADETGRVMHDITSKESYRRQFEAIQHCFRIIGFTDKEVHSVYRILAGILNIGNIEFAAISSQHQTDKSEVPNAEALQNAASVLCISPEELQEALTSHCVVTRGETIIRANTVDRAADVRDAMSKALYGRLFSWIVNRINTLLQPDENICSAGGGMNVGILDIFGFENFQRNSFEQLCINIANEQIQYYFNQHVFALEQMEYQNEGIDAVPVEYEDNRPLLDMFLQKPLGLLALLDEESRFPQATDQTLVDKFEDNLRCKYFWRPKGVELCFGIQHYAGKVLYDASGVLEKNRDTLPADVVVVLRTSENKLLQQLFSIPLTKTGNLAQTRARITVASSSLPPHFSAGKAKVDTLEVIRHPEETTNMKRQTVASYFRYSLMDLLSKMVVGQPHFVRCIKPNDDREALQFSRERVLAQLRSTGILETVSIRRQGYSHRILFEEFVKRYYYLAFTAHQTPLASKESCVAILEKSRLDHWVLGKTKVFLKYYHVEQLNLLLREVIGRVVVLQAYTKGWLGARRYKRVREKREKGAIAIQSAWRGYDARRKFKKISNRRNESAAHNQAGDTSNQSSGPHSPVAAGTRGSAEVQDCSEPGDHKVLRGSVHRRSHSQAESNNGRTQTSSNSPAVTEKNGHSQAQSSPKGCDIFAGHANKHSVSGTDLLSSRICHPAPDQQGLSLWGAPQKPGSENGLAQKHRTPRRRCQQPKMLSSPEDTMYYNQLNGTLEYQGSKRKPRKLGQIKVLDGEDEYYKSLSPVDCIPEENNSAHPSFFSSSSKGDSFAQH
T7 sequence (P29597 whole entry): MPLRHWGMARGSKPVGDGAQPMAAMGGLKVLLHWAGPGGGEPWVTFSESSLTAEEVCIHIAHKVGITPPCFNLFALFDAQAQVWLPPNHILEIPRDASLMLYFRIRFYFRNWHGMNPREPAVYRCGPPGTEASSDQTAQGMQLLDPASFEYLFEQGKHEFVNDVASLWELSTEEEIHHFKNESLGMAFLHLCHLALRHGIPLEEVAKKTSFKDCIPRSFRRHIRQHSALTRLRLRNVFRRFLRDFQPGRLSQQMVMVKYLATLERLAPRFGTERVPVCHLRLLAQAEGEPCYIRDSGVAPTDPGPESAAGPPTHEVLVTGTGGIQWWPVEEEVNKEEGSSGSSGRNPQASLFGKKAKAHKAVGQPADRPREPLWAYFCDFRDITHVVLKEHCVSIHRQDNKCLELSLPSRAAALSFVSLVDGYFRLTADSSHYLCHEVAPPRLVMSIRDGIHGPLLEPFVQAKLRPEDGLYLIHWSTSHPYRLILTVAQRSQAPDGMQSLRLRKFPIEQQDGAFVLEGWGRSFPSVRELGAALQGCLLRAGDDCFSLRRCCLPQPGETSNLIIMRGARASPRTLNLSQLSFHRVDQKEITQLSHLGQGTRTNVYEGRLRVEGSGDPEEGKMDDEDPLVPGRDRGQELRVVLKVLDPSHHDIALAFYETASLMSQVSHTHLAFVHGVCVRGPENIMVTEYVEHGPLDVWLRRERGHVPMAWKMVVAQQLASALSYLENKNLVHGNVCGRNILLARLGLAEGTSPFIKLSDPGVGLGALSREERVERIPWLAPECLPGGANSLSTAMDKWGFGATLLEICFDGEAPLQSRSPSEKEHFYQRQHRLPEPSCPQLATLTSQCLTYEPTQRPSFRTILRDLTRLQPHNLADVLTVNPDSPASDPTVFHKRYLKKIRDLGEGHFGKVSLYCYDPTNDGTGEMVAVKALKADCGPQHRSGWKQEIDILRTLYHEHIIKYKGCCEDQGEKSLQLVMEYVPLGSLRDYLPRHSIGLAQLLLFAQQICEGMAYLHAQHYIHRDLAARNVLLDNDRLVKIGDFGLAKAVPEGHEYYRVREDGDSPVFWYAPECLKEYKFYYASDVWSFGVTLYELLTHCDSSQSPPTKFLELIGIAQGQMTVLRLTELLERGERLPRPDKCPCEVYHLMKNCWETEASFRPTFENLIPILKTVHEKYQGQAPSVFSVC
Sequence of HCK (P08631 whole entry): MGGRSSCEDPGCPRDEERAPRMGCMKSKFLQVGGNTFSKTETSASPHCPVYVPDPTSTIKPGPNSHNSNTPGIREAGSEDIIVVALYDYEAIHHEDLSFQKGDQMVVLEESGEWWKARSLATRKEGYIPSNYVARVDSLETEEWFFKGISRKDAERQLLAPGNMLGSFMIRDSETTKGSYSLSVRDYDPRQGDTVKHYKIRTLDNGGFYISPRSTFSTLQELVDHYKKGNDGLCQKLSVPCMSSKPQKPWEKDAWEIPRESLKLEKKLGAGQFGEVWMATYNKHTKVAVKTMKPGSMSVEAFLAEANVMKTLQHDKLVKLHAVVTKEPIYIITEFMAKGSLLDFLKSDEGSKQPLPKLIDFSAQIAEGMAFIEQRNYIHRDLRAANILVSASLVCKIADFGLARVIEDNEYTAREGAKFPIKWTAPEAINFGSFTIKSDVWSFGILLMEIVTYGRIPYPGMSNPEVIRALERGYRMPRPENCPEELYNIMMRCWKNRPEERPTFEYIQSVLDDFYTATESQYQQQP

Cc1ccc(NC(=O)c2cccc(C(F)(F)F)c2)cc1Nc1cc(-c2cccnc2)nc2[nH]ccc12 [HZX-02-059]
remaining binding at 1 µM (FAK): 98%
remaining binding at 1 µM (CDC2L5): 100%
remaining binding at 1 µM (HCK): 84%
remaining binding at 1 µM (NDR1): 100%
remaining binding at 1 µM (MEK5): 83%
remaining binding at 1 µM (NEK2): 66%
remaining binding at 1 µM (MYO3B): 97%
remaining binding at 1 µM (IKK-epsilon): 70%
remaining binding at 1 µM (NEK4): 86%
remaining binding at 1 µM (MERTK): 86%
remaining binding at 1 µM (ROS1): 72%
remaining binding at 1 µM (SRPK1): 95%
remaining binding at 1 µM (MST1): 74%
remaining binding at 1 µM [1]: 100%
remaining binding at 1 µM (EGFR): 67%
remaining binding at 1 µM (YANK1): 92%
remaining binding at 1 µM (ASK2): 66%
remaining binding at 1 µM (BMPR1B): 91%
remaining binding at 1 µM (ROCK2): 100%
remaining binding at 1 µM (IGF1R): 92%
remaining binding at 1 µM (FLT3(ITD)): 79%
remaining binding at 1 µM (MAP3K3): 89%
remaining binding at 1 µM (MLK2): 97%
remaining binding at 1 µM (JNK3): 96%
